Tests used:
Type in all cases: cell-based
ypt1^ts cells = test: Rescue of growth of ypt1^ts mutant yeast (OD600); conditions: Saccharomyces cerevisiae, read-out: Ypt1-ts MRC (Minimum Rescue Concentration), ypt1^ts cells, 35° C. and 37° C., OD600; multiple results separated by a comma
Text: The activity of the compounds as modulators of protein trafficking may be measured in the assays described herein that evaluate the ability of a compound to rescue an impairment in protein trafficking. For example, the yeast mutant cell line ypt1^ts can be used to identify compounds that rescue cells from the lethal phenotype of a mutant YPT1 allele (see, e.g., Examples and Schmitt et al. (1988) Cell 53:635-47). The activity may be measured, for example, in a whole yeast cell assay using 384-well screening protocol and an optical density measurement.
The yeast mutant cell line ypt1^ts suppresses, in a temperature dependent fashion, the dominant-lethal phenotype of a mutant YPT1 allele (Schmitt et al. (1988) Cell 53:635-47). The yeast mutant cell line ypt1^ts contains an allele of YPT1 that has two point mutations: one that changes an asparagine at position 121 to a isoleucine (N121I) and another that changes an alanine at position 161 to a valine (A161V). The N121I mutation causes dominant lethality by itself, but lethality is suppressed by the second mutation, resulting in a recessive loss of function phenotype at the restrictive temperatures. ypt1^ts cells grow normally at temperatures up to 25° C., but are growth arrested at 37° C. (Id.).
Compounds were screened to assess their ability to restore growth of ypt1^ts cells. The effect of the compounds was measured on ypt1^ts cells cultured at room temperature (permissive temperature), 37° C. (non-permissive temperature), and 35° C. (semi-permissive temperature).
To determine if the test compounds could rescue the ypt1^ts mutant phenotype, ypt1^ts cells were grown overnight in synthetic complete (SC) media supplemented with 2% glucose at room temperature. Log phase cells were diluted into SC 2% glucose media to an OD600 of 0.003. 100 μL of this culture was then aliquoted into each well of 96-well flat bottom microtiter plates. 1 μL of the test compounds dissolved in DMSO (at a concentration range from 5 mM-0.005 mM) or of DMSO alone was added to each well (50 μM-0.05 μM final concentration in 1% DMSO). Plates were mixed by vortexing and incubated at 35° C. and 37° C. Compound rescue of the ypt1^ts temperature sensitive defect was assessed by measuring the OD600 (optical density at 600 nm; cell growth) of the cultures. Plates incubated at 35° C. were measured at 24 and 40 hours incubation time while plates grown at 37° C. were measured after 40 hours of incubation.
Assays monitoring the rescue of ypt1^ts mutants were performed using a vehicle, a positive control (calcium), and the compounds identified in Table II. Results in Table II corresponding to an MRC (Minimum Rescue Concentration) for ypt1^ts of greater than or equal to 50 micromolar are labeled +; of an MRC for ypt1^ts of 10-50 micromolar are labeled ++; and of an MRC for ypt1^ts of less than 10 micromolar are labeled +++. Multiple results for a particular compound are separated by a comma.

ΔF508 CFTR [1] = molecular target: T1, ΔF508 CFTR (Homo sapiens, UniProt P13569, DEL508-508); test: Corrector activity, YFP halide (iodide) quenching assay in FRT cells expressing ΔF508 CFTR; design: expressed in transfected cells; host or cells: Fischer rat thyroid (FRT) cells; conditions: 24 hours with compound at 37° C., forskolin and genistein
T1 sequence (P13569 with tags, fused parts or gaps DEL508-508): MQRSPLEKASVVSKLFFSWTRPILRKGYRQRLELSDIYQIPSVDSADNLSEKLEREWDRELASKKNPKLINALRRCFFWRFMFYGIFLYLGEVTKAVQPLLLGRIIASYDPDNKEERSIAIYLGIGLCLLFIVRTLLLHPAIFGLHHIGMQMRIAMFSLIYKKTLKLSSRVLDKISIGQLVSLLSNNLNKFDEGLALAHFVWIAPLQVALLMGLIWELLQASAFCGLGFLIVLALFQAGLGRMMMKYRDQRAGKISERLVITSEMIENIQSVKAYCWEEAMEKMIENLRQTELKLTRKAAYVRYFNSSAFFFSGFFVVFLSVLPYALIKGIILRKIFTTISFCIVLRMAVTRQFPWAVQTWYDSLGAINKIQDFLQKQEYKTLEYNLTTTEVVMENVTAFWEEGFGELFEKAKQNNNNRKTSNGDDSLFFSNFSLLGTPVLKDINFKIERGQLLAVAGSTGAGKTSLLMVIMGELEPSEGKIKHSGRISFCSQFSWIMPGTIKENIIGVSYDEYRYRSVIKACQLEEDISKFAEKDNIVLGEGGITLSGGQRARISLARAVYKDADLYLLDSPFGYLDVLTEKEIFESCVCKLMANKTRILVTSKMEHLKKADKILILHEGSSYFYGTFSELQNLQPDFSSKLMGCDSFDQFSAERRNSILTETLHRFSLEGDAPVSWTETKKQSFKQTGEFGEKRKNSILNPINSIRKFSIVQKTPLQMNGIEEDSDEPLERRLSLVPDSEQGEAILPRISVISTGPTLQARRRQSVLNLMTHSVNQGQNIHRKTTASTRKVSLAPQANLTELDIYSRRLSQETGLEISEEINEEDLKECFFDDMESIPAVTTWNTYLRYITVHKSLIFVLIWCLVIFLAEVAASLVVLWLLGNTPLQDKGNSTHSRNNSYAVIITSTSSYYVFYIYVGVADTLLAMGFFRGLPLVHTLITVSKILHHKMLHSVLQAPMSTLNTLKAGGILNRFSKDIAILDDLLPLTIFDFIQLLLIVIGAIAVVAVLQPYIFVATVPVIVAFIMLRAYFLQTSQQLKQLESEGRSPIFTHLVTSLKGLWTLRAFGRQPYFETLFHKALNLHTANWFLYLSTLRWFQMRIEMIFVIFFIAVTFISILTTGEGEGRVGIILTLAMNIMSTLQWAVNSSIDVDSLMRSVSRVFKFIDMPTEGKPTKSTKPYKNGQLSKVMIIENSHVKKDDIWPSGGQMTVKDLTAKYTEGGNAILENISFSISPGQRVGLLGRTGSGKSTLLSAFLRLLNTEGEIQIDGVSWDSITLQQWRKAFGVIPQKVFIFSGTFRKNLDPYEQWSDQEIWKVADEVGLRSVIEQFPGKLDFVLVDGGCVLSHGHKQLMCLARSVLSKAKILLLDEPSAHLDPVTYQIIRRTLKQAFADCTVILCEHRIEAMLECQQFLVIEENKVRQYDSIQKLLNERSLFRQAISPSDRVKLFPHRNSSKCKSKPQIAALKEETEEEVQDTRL
How it was run: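 FRT cells co-expressing ΔF508 CFTR and halide-sensitive YFP were incubated 24 h at 37° C with compounds, then stimulated 30 min at 37° C in PBS with forskolin and genistein. Endpoint fluorescence after iodide injection was normalized to initial reading; EC50 from 4-parameter fit with bottom constrained to DMSO control.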

ΔF508 CFTR [2] = molecular target: T1, ΔF508 CFTR; test: Potentiator activity, YFP halide (iodide) quenching assay in FRT cells expressing ΔF508 CFTR, 27° C. pre-incubation; design: expressed in transfected cells; host or cells: Fischer rat thyroid (FRT) cells; conditions: FRT cells ΔF508 CFTR/YFP, 24 hours at 27° C., compound with forskolin 30 min
How it was run: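 FRT cells stably co-expressing ΔF508 CFTR and halide-sensitive YFP, grown 24 h at 37° C. then 24 h at 27° C. to raise surface CFTR. Compounds in PBS with forskolin, 30 min at 37° C.; iodide injected and YFP quenching (ex 485/em 530 nm) followed. EC50 from normalized endpoint fluorescence.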

[3] = FRT cells ΔF508 CFTR/YFP, read-out: Corrector EC50

SMILES | minimal effective concentration (ypt1^ts cells) [µM] | EC50 (ΔF508 CFTR [1]; [3]) [µM] | EC50 (ΔF508 CFTR [2]) [µM] | EC50 (ΔF508 CFTR [1]; Corrector EC50, FRT cells ΔF508 CFTR/YFP) [µM]
CC(=O)Nc1ncnc2c1c(-c1ccc(Cl)cc1)nn2C(C)(C)C [Compound No. 2, N-[1-tert-Butyl-3-(4-chloro-phenyl)-1H-pyrazolo[3,4-d]pyrimidin-4-yl]-acetamide] | > 50 | 5 to 10 | < 2 | 
CC(C)(C)n1nc(-c2ccccc2)c2c(N)ncnc21 [compound 8] | > 50 | > 15 |  | 
CC(C)(C)n1nc(-c2cccc(Cl)c2)c2c(N)ncnc21 [compound 10] | > 50 | > 15 | < 2 | 
CC(C)(C)n1nc(-c2cc3ccccc3s2)c2c(N)ncnc21 [compound 16, 3-Benzo[b]thiophen-2-yl-1-tert-butyl-1H-pyrazolo[3,4-d]pyrimidin-4-ylamine] | > 50 | > 15 |  | 
Cc1ccc(-c2nn(C(C)(C)C)c3ncnc(N)c23)cc1 [compound 24] | 10 to 50 |  |  | 2 to 5
CC(C)n1nc(-c2ccc(Cl)cc2)c2c(N)ncnc21 [compound 27] | 10 to 50 | 2 to 5 |  | 
Nc1ncnc2c1c(-c1ccc(Cl)cc1)nn2CC1CC1 [compound 29, 3-(4-Chloro-phenyl)-1-cyclopropylmethyl-1H-pyrazolo[3,4-d]pyrimidin-4-ylamine] | < 10 | 5 to 10 |  | 
C#CCn1nc(-c2ccc(Cl)cc2)c2c(N)ncnc21 [compound 30] | > 50 | > 15 |  | 
CCn1nc(-c2ccc(Cl)cc2)c2c(N)ncnc21 [compound 31] | < 10 | 5 to 10 | > 15 | 
C=CCn1nc(-c2ccc(Cl)cc2)c2c(N)ncnc21 [compound 32] | > 50 | > 15 |  | 
Nc1ncnc2c1c(-c1ccc(Cl)cc1)nn2C1CCC1 [compound 33] | 10 to 50 | 5 to 10 | < 2 | 
Nc1ncnc2c1c(-c1ccc(Cl)cc1)nn2C1CCCC1 [compound 34] | 10 to 50 |  | < 2 | 
CC(C)(C)n1nc(-c2ccc(F)cc2)c2c(NC(=O)c3ccccc3)ncnc21 [compound 40, N-[1-tert-Butyl-3-(4-fluoro-phenyl)-1H-pyrazolo[3,4-d]pyrimidin-4-yl]-benzamide] | > 50 | > 15 |  | 
Cc1cc(-c2nn(C(C)(C)C)c3ncnc(N)c23)ccc1F [compound 41] | > 50 | > 15 |  | 
CCn1cc(-c2ccc(C)cc2)c2c(N)cccc21 [compound 43, 1-Ethyl-3-p-tolyl-1H-indol-4-ylamine] | > 50 | > 15 | > 15 | 
CCn1nc(-c2ccc(C)cc2)c2c(N)cccc21 [compound 44, 1-Ethyl-3-p-tolyl-1H-indazol-4-ylamine] | > 50 | > 15 | > 15 | 
COC(=O)c1cnc2c(c(-c3ccc(C)cc3)nn2C(C)(C)C)c1N [compound 46] | > 50 | > 15 | > 15 | 
CNC(=O)c1cnc2c(c(-c3ccc(C)cc3)nn2C(C)(C)C)c1N [compound 47] | > 50 | > 15 | > 15 | 
CCn1nc(-c2ccc(Cl)cc2)c2c(NC(C)=O)ncnc21 [compound 53] | > 50 | 5 to 10 |  | 
Nc1ncnc2c1c(Cc1cccc3ccccc13)nn2C1CCC1 [compound 74] | < 10 | > 15 |  | 
Nc1ncnc2c1c(Cc1cccc3ccccc13)nn2C1CCCC1 [compound 77] | < 10 | > 15 |  | 
CCn1nc2cccc(N)c2c1-c1ccc(C)cc1 [compound 80] | > 50 | > 15 | > 15 | 
CCn1cc(-c2ccc(C)cc2)c2c(N)ncnc21 [compound 86] | 10 to 50 | 2 to 5 | 5 to 10 | 
